Results on seven molecules are retold here after DBAASP.

Holding throughout (assay): ≥ marks a high value that may be exact or a test limit, other limits are often not marked, values filed in µg/mL are converted to µM
In assay [1] the test system is Escherichia coli BL21.
For assay [2], the system named is Pseudomonas aeruginosa PAO1.
The test system of assay [3] is Streptococcus pyogenes M1T1 5448.
Assay [4] concerns Staphylococcus aureus ATCC 33591.
The test system of assay [5] is Acinetobacter baumannii ATCC 17978D-5.
Assay [6] deals with Enterococcus faecium ATCC 700221.
Assay [7] concerns Pseudomonas aeruginosa ATCC 27853.
Assay [8] deals with Streptococcus pneumoniae ATCC 49619.
The test system of assay [9] is Pseudomonas aeruginosa ATCC 19660.
The test system of assay [10] is Klebsiella aerogenes ATCC 13048.
Assay [11] concerns Staphylococcus epidermidis ATCC 51625.
Assay [12] deals with Staphylococcus aureus ATCC 12600.
The test system of assay [13] is Escherichia coli ATCC 25922.
Assay [14] relates to Streptococcus mutans ATCC 25175.
Assay [15] has as its system Staphylococcus aureus.
Assay [16] deals with Enterococcus faecalis ATCC 29212.
Assay [17] deals with Escherichia coli UB1005.
The subject of assay [18] is Streptococcus agalactiae.
For assay [19], the system named is Salmonella enterica subsp. enterica serovar Typhimurium C77-31.
The test system of assay [20] is Salmonella enterica subsp. enterica serovar Pullorum C79-13.
Assay [21] relates to Salmonella enterica subsp. enterica serovar Choleraesuis CVCC 503.
Assay [22] deals with Staphylococcus epidermidis ATCC 12228.
For assay [23], the system named is Salmonella enterica subsp. enterica serovar Typhimurium ATCC 14028.
Assay [24] relates to Staphylococcus aureus ATCC 29213.
For assay [25], the system named is Staphylococcus aureus ATCC 43300.
Assay [26] has as its system Bacillus subtilis CMCC 63501.
Assay [27] relates to Escherichia coli K88.
For assay [28], the system named is Escherichia coli K99.
Assay [29] deals with Escherichia coli 078.
In assay [30] the test system is Staphylococcus aureus ATCC 25923.

Values after ≈ are worked out from the molar mass of the structure shown.

`CC[C@H](C)[C@H](NC(=O)[C@H](CCCCN)NC(=O)[C@H](CCCCN)NC(=O)[C@H](CCCCN)NC(=O)[C@H](CC(C)C)NC(=O)[C@H](CCCN=C(N)N)NC(=O)[C@H](CCC(N)=O)NC(=O)[C@H](Cc1ccccc1)NC(=O)[C@@H](NC(=O)[C@@H](NC(=O)[C@H](CCC(=O)O)NC(=O)[C@H](CCCCN)NC(=O)CNC(=O)[C@H](C)N)[C@@H](C)O)[C@@H](C)CC)C(=O)N[C@@H](CCC(N)=O)C(=O)N[C@@H](CCC(=O)O)C(=O)N[C@@H](CCCCN)C(=O)NCC(=O)N[C@@H](CCCCN)C(=O)N[C@@H](CCCN=C(N)N)C(=O)N[C@@H](C)C(=O)N[C@H](C(=O)N[C@H](C(=O)N[C@@H](Cc1c[nH]c2ccccc12)C(=O)N[C@@H](Cc1c[nH]c2ccccc12)C(=O)O)[C@@H](C)CC)[C@@H](C)O` [AGKETIFQRLKKKIQEKGKRATIWW]: the MIC in assay [1] was determined as 4 µM (≈ 12.2 µg/mL); in assay [2], 16 µM (≈ 48.7 µg/mL); in assay [3] it was 0.25 µM (≈ 0.761 µg/mL).
Regarding `C[C@H](NC(=O)[C@H](Cc1ccccc1)NC(=O)[C@H](C)NC(=O)[C@@H](N)Cc1ccccc1)C(=O)N[C@@H](Cc1ccccc1)C(=O)N[C@@H](CCCCN)C(=O)N[C@@H](C)C(=O)N[C@@H](Cc1ccccc1)C(=O)N[C@@H](CCCCN)C(=O)N[C@@H](CCCCN)C(=O)N[C@@H](C)C(=O)N[C@@H](Cc1ccccc1)C(=O)N[C@@H](CCCCN)C(=O)N[C@@H](CCCCN)C(=O)N[C@@H](Cc1ccccc1)C(=O)N[C@@H](CCCCN)C(=O)N[C@@H](CCCCN)C(=O)N[C@@H](C)C(=O)N[C@@H](Cc1ccccc1)C(=O)N[C@@H](CCCCN)C(=O)N[C@@H](CCCCN)C(=O)N[C@@H](C)C(=O)N[C@@H](Cc1ccccc1)C(=O)NCC(=O)N1CCC[C@H]1C(=O)N[C@@H](CS)C(=O)O` [FAFAFKAFKKAFKKFKKAFKKAFGPC], the MIC in assay [4] was 21.1 µM (≈ 64 µg/mL); in assay [5], 21.1 µM (≈ 64 µg/mL); in [6], 21.1 µM (≈ 64 µg/mL); in assay [7], more than 21.1 µM; in assay [8] it was 21.1 µM (≈ 64 µg/mL); in [9] it was 21.1 µM (≈ 64 µg/mL). Also, the MIC in [10] and in assay [11] was 21.1 µM (≈ 64 µg/mL) each time.
As to `CC[C@H](C)[C@H](NC(=O)[C@H](C)NC(=O)CNC(=O)[C@H](Cc1ccccc1)NC(=O)[C@H](CC(C)C)NC(=O)CN)C(=O)N[C@@H](C)C(=O)NCC(=O)N[C@@H](Cc1ccccc1)C(=O)N[C@H](C(=O)N[C@@H](CCCCN)C(=O)NCC(=O)NCC(=O)N[C@@H](Cc1c[nH]c2ccccc12)C(=O)N1CCC[C@H]1C(=O)NCC(=O)N[C@@H](CC(C)C)C(=O)N[C@H](C(=O)N[C@@H](CCCCN)C(=O)NCC(N)=O)C(C)C)[C@@H](C)CC` [GLFGAIAGFIKGGWPGLVKG], the MIC is 16 µM (≈ 31.1 µg/mL) in assay [12], more than 64.3 µM in [7], 16 µM (≈ 31.1 µg/mL) in [13] and 11.3 µM (≈ 22 µg/mL) in assay [14].
With `CC[C@H](C)[C@H](N)C(=O)N[C@H](C(=O)N[C@@H](CS)C(=O)N[C@@H](CCCN=C(N)N)C(=O)N[C@@H](CCCCN)C(=O)N1CCC[C@H]1C(=O)N[C@H](C(=O)N[C@H](C(=O)N[C@@H](CS)C(=O)N[C@@H](CCCN=C(N)N)C(=O)N[C@@H](CCCCN)C(=O)N1CCC[C@H]1C(=O)N[C@H](C(=O)N[C@H](C(N)=O)[C@@H](C)CC)[C@@H](C)CC)[C@@H](C)CC)[C@@H](C)CC)[C@@H](C)CC` [IICRKPIICRKPII], the MIC in assay [15] was more than 64 µM; in [16] it was more than 64 µM; in assay [17], 16 µM (≈ 26.6 µg/mL); in assay [18] it was not below 64 µM; in [19], not below 32 µM; in assay [20], not below 64 µM. For the same molecule, the MIC in assay [13] is 16 µM (≈ 26.6 µg/mL); in [21], not below 64 µM; in assay [22], more than 64 µM; in assay [23], 32 µM (≈ 53.3 µg/mL); in [24] it was more than 64 µM; in assay [25], more than 64 µM.
`CC[C@H](C)[C@H](NC(=O)[C@H](CCCCN)NC(=O)[C@H](C)NC(=O)[C@H](CCCN=C(N)N)NC(=O)[C@H](CC(C)C)NC(=O)[C@H](CCCN=C(N)N)NC(=O)[C@@H](NC(=O)[C@H](CCCCN)NC(=O)[C@@H](NC(=O)[C@H](CCCCN)NC(=O)[C@H](C)NC(=O)[C@H](CCCN=C(N)N)NC(=O)[C@H](CC(C)C)NC(=O)[C@H](CCCCN)NC(=O)[C@H](Cc1ccccc1)NC(=O)CNC(=O)[C@@H](N)CCSC)[C@@H](C)CC)C(C)C)C(=O)N[C@@H](CCCCN)C(=O)N[C@@H](CC(C)C)C(=O)O` [MGFKLRAKIKVRLRAKIKL]: the MIC in assay [4] is 28.2 µM (≈ 64 µg/mL); in [5], 28.2 µM (≈ 64 µg/mL); in assay [6], 28.2 µM (≈ 64 µg/mL); in assay [7], more than 28.2 µM; in [8] it was 28.2 µM (≈ 64 µg/mL); in [9], 28.2 µM (≈ 64 µg/mL). Moreover, the MIC in assay [10] came out at 28.2 µM (≈ 64 µg/mL); in assay [11], 1.76 µM (≈ 4 µg/mL).
Turning to `CC[C@H](C)[C@H](NC(=O)[C@H](Cc1c[nH]c2ccccc12)NC(=O)[C@H](CCCCN)NC(=O)[C@H](CC(C)C)NC(=O)[C@@H](NC(=O)[C@H](Cc1c[nH]c2ccccc12)NC(=O)CNC(=O)[C@@H](NC(=O)[C@H](CCCCN)NC(=O)[C@H](Cc1c[nH]c2ccccc12)NC(=O)[C@H](CC(C)C)NC(=O)[C@@H](N)CCCN=C(N)N)[C@@H](C)CC)C(C)C)C(N)=O` [RLWKIGWVLKWI], the MIC in [26] stood at 2 µM (≈ 3.19 µg/mL); in assay [16], 4 µM (≈ 6.39 µg/mL); in assay [17], 16 µM (≈ 25.6 µg/mL); in assay [27], 2 µM (≈ 3.19 µg/mL); in assay [28] it was 4 µM (≈ 6.39 µg/mL); in [29], 4 µM (≈ 6.39 µg/mL). For the same molecule, the MIC in assay [19] came out at 16 µM (≈ 25.6 µg/mL); in assay [20] it was 2 µM (≈ 3.19 µg/mL); in assay [13], 16 µM (≈ 25.6 µg/mL); in assay [22], 16 µM (≈ 25.6 µg/mL); in [23], 8 µM (≈ 12.8 µg/mL); in assay [24], 8 µM (≈ 12.8 µg/mL). This molecule also showed a minimal inhibitory concentration (MIC) in assay [30] of 16 µM (≈ 25.6 µg/mL).
Turning to `CC(C)[C@H](N)C(=O)N[C@@H](CS)C(=O)N[C@@H](CCCN=C(N)N)C(=O)N[C@@H](CCCCN)C(=O)N1CCC[C@H]1C(=O)N[C@H](C(=O)N[C@H](C(=O)N[C@@H](CS)C(=O)N[C@@H](CCCN=C(N)N)C(=O)N[C@@H](CCCCN)C(=O)N1CCC[C@H]1C(=O)N[C@H](C(N)=O)C(C)C)C(C)C)C(C)C` [VCRKPVVCRKPV], the MIC in [15] was more than 64 µM; in assay [16], more than 64 µM; in assay [17] it was not below 64 µM; in [18], not below 64 µM; in assay [19], not below 64 µM; in assay [20], not below 64 µM. The MIC in assay [13] is more than 64 µM; in [21], not below 64 µM; in [22], more than 64 µM; in assay [23], more than 64 µM; in assay [24], more than 64 µM; in assay [25], more than 64 µM.

A word on the MIC: it is the lowest concentration found to suppress growth.
